From US20250134847A1, “COMBINATION THERAPIES” (QBIOTICS PTY LTD, priority 2022, published 2025)
Where two headings read alike, the source gives them in different places.

How the values were obtained:
SCC-15 tumours [1] = experiment: SCC-15 tumours in BALB/c Foxn1^nu xenogeneic mouse model, intratumoural Compound 1 and external beam irradiation; format: in vivo; details: for Median Survival: Xenogeneic Model
Protocol: (§1) Subjects were ear tagged for identification.
(§2) Adequate positioning was ensured with the irradiator (Gammacel 40 Extractor) by sedating each mouse with a combination solution of Ketamine (80 mg/kg of 8 mg/mL solution, Ceva, NSW, AU) and Midazolam (4 mg/kg of 0.4 mg/mL solution, Sandoz, Hozkirchen, Germany) via intraperitoneal injection. Mice were double contained during transfer to and from the irradiator. During irradiation, mice were restrained with lead shielding to prevent exposure to sites other than the flanks where the tumours were located.
(§3) Tumour volume was recorded as above.

MC38 tumours = MC38 tumours in C57BL/6 syngeneic mouse model, intratumoural Compound 1 and external beam irradiation; format: in vivo; details: for Median Survival: Syngeneic Model
Protocol: The MC38 cell line is a murine colonic adenocarcinoma cell line derived from the C57BL/6 mouse (Kerafast, ENH204).
as §1
as §2, with “located. […] On completion of treatment, mice were warmed with a heating blanket, placed on their side, and observed until ambulant.” for “located.”
as §3

LLC tumours = experiment: Lewis Lung Carcinoma (LLC) tumours in C57BL/6 mice, intratumoural Compound 1 and intraperitoneal doxorubicin; format: in vivo, mouse
Protocol: (§4) B16-F10-OVA (B16-F10 mouse melanoma cell line overexpressing chicken ovalbumin) were cultured in RPMI-1640 supplemented with 10% FCS (complete medium) and 3 mM HEPES. LLC (Lewis Lung Carcinoma) cells were cultured in DMEM (Gibco) supplemented with 10% FCS. Both cell lines were incubated at 37° C., 5% CO2 in a humidified incubator.
(§5) C57BL/6 mice were purchased from the Animal Resources Centre (ARC), Murdoch, Western Australia. […] All mice were housed in a specific pathogen free (SPF) facility, with 12 hours light/dark cycle and continual access to food and water.
C57BL/6 mice (6-7 weeks old) were injected subcutaneously (s.c.) on both flanks with B16-F10-OVA mouse melanoma cells (2×10^5 cells per site in 50 μl) or LLC mouse lung cancer cells (5×10^5 cells per site in 50 μl). Tumours were allowed to develop to approximately 75-100 mm^3. Mice were then treated intra-peritoneally with doxorubicin in saline (3 mg/kg; 60 μg/dose, saline for vehicle). […] Treatment with the chemotherapy agent was repeated after 7 and 14 days. […]
Volumes were recorded using digital calipers and expressed as mm^3 according to the formula A×b×b×0.5 where A=length and b=measured breadth of the tumour. Mice were also assessed for clinical signs of distress according to an approved clinical score sheet during the experiment. […]

SCC-15 tumours [2] = details: Xenogeneic Model
Protocol: (§6) Prior to inoculation of subject mice, the cancer cells were seeded to T175 tissue culture flasks (Thermo Scientific) to increase cell numbers. Once 70-80% confluent, cells were trypsinized and resuspended in RPMI-1640 media for harvesting and cell count using a haemocytometer. The cell volume was centrifuged and the pellet reconstituted in RPMI-1640 media to a volume sufficient for the number of inoculations required at 100 μL per injection with two sites per mouse subject. The cell suspension was kept on ice and transferred to the animal facility for injection into the subjects.
The BALB/c Foxn1^nu mice were obtained from the Animal Resource Centre, Western Australia. The C3H/HeNCr mice were bred at the QIMR Animal Facility.
C3H/HeNCr mice were shaved (Wahl, Illinois, USA) one day before inoculation. Whilst restrained subjects were inoculated on the hind quarter bilaterally by injecting 100 μL of the appropriate cell suspension into the subcutaneous space with a Terumo® (Tokyo, Japan) 27G×½″ needle. Subjects were ear tagged for identification. Following inoculation, mice were monitored twice weekly for tumour development and well-being and once tumours developed, the subjects were monitored daily.
(§7) A cohort of thirty BALB/c Foxn1^nu and twenty-one C3H/HeNCr mice, each with two tumours per mouse were divided into six experimental groups as set out in Table 2.
(§8) Weight was recorded for each subject prior to and post-treatment, and at the time of culling. The width and length of each tumour was measured using 150 mm digital Vernier callipers (Kinchrome, Qld, AU) and individual tumour volume (mm^3) calculated using the formula:
IP injections were performed by first sterilizing the anterior abdominal wall of the subject with an alcohol swab before the dorsal skin of the subject was scruffed and the subject inverted with head down. A 29 G needle with the bevel upwards is used to inject into the lower right abdominal quadrant. […]
Tumour volume was recorded as above. […]
Data was analysed with Microsoft Excel and Prism 7 to calculate average tumour volumes and standard deviations (SD). […]

A431 cells = details: for Combination Index at IC50, Irradiation: with irradiation
Protocol: (§9) Cells were seeded at 3000 cells/well in 100 μL of medium in flat bottom 96 well cell culture plates (Corning Incorporated, New York, USA). Cells were incubated for 24 hr to ensure plate adherence prior to treatment.
(§10) One in two dilutions were then performed down the plate leaving the last row as an untreated control.
(§11) Each cell line was treated with each agent in triplicate with data being averaged across the three trials.
(§12) For single agent experiments, wells included no treatment and ethanol treatment controls. Following treatment, cells were incubated for 4 hours prior to washing with PBS and replacement of medium.
(§13) Following incubation of treated cells for 5-7 days, cell survival was determined using a sulforhodamine B (SRB) proliferation assay. This assay quantitatively assesses the degree of protein staining as a surrogate marker for cellular growth. Cells were washed with PBS and subsequently fixed with methylated spirits (Chem Supply, South Australia) for at least five minutes. Following fixation, the methylated spirits was removed and cells again washed gently with water prior to staining with 50 μL/well of 0.4% SRB solution (Sigma Aldrich) in 1% acetic acid for sixty minutes. This solution was tipped off and cells quickly washed twice with 1% acetic acid. The assay was completed with administration of 100 μL/well of 10 mM Tris base (unbuffered, pH >9, Invitrogen). Absorbance was measured on an enzyme-linked immunosorbent assay (ELISA) reader (VERSA max microplate reader, Molecular Devices, California, USA) at 564 nm and a five second agitation. Cell survival was graphed as a percentage of control well absorbance against dose.
(§14) Analysis was performed using the software program Combusyn.
(§15) As for the single agent experimentation, the cell lines were maintained in culture before their eventual transfer to 96-well plates. […] Cell survival was determined relative to no-treatment controls after 7 days of incubation using SRB assays.

SCC-15 cells = details: for Combination Index at IC50, Irradiation: with irradiation; for relationship by Chou-Talalay combination index method: Compound 1 with irradiation
Protocol: as §9, §10, §11, §12, §13, §14, §15

UV-13-1 tumours = details: for Median Survival: Syngeneic Model
Protocol: as §6
C3H/HeNCr mice were shaved (Wahl, Illinois, USA) one day before inoculation. Whilst restrained subjects were inoculated on the hind quarter bilaterally by injecting 100 μL of the appropriate cell suspension into the subcutaneous space with a Terumo® (Tokyo, Japan) 27G×½″ needle. […] Following inoculation, mice were monitored twice weekly for tumour development and well-being and once tumours developed, the subjects were monitored daily.
as §7, §8
IP injections were performed by first sterilizing the anterior abdominal wall of the subject with an alcohol swab before the dorsal skin of the subject was scruffed and the subject inverted with head down. A 29 G needle with the bevel upwards is used to inject into the lower right abdominal quadrant.
On reaching a volume of 70-100 mm^3, tumours of the test subjects were injected IT with 50 μL of either 5 μg or 10 μg of Compound 1 or for control subjects 50 μL of 40% propylene glycol (PG).
The subjects were euthanized by CO2 inhalation when total tumour burden reached 1000 mm^3 per mouse, if ill, and on completion of the experiment.
Data was analysed with Microsoft Excel and Prism 7 to calculate average tumour volumes and standard deviations (SD). Individual and averaged tumour volumes and Kaplan-Meier survival curves were graphed relative to time of treatment.
C3H/HeNCr mouse model inoculated with UV-13-1 tumours is a syngeneic model where the mouse is immunocompetent and the influence of the immune system on treatment may be assessed. These mice were not culled at 60 days but were periodically (weekly) monitored up to 200 days for recurrence.

B16-F10-OVA tumours = experiment: B16-F10-OVA mouse melanoma tumours in C57BL/6 mice, intratumoural Compound 1 and intraperitoneal doxorubicin
Protocol: as §4, §5
C57BL/6 mice (6-7 weeks old) were injected subcutaneously (s.c.) on both flanks with B16-F10-OVA mouse melanoma cells (2×10^5 cells per site in 50 μl) or LLC mouse lung cancer cells (5×10^5 cells per site in 50 μl). Tumours were allowed to develop to approximately 75-100 mm^3. Mice were then treated intra-peritoneally with doxorubicin in saline (3 mg/kg; 60 μg/dose, saline for vehicle). […] Treatment with the chemotherapy agent was repeated after 7 and 14 days. For the B16-F10-OVA model, 5 mice per group (10 tumours) were used in duplicate experiments (total of 10 mice per group, 20 tumours in total from both experiments). For the LLC tumour model, 5 mice per group were used in a single experiment (10 tumours).
Volumes were recorded using digital calipers and expressed as mm^3 according to the formula A×b×b×0.5 where A=length and b=measured breadth of the tumour. Mice were also assessed for clinical signs of distress according to an approved clinical score sheet during the experiment. The experiment ceased when an unacceptable clinical score (>6) was reached, or the cumulative tumour burden of the mouse exceeded 1,000 mm^3. […] Mice were humanely euthanized by CO2 asphyxiation at the end of the experiment.

[3] = 5 Gy irradiation + IT 7.5 μg Compound 1
[4] = 10 Gy irradiation + IT 7.5 μg Compound 1
[5] = syngeneic model, 5 Gy irradiation + 7.5 μg IT Compound 1
[6] = syngeneic model, 10 Gy irradiation + 7.5 μg IT Compound 1
[7] = 5 μg or 10 μg Compound 1, p<0.0001
[8] = IP N/Saline + IT 5 μg Compound 1
[9] = IP N/Saline + IT 10 μg Compound 1
[10] = IP cisplatin 2.5 mg/kg + IT 40% PG
[11] = intraperitoneal doxorubicin 3 mg/kg + intralesional 40% PG/30 mM acetate

C/C=C(\C)C(=O)O[C@@H]1[C@@H](C)[C@@]2(O)[C@H]([C@@H]3C(C)(C)[C@]13OC(=O)[C@@H](C)CC)[C@@H]1O[C@]1(CO)[C@@H](O)[C@]1(O)C(=O)C(C)=C[C@H]12 [Compound 1, 12-tigloyl-13-(2-methylbutanoyl)-6,7-epoxy-4,5,9,12,13,20-hexahydroxy-1-tiglien-3-one]
Median Survival (SCC-15 tumours [1]; 0 Gy + IT 7.5 μg Compound 1): 22 days
Median Survival (SCC-15 tumours [1]; [3]): 32 days
Median Survival (SCC-15 tumours [1]; [4]): 166 days
cure rate (SCC-15 tumours [1]; xenogeneic model, 7.5 μg IT Compound 1 alone): 70%
survival rate at 200 days (SCC-15 tumours [1]; xenogeneic model, 5 Gy irradiation + 7.5 μg IT Compound 1): 20%
survival rate at 200 days (SCC-15 tumours [1]; xenogeneic model, 10 Gy irradiation + 7.5 μg IT Compound 1): 50%
cure rate (proportion of tumours responding completely) (SCC-15 tumours [1]; xenogeneic model, Compound 1 and 5 Gy irradiation): 80%
cure rate (proportion of tumours responding completely) (SCC-15 tumours [1]; xenogeneic model, Compound 1 and 10 Gy irradiation): 70%
tumour size response compared to other combinations (SCC-15 tumours [1]; xenogeneic model, Compound 1 combined with irradiation): significant and durable reduction in tumour size
duration of treatment response (SCC-15 tumours [1]; xenogeneic model, Compound 1 monotherapy): 11 days
duration of treatment response (SCC-15 tumours [1]; xenogeneic model, Compound 1 with 5 Gy irradiation): 51.5 days
duration of treatment response (SCC-15 tumours [1]; xenogeneic model, Compound 1 with 10 Gy irradiation): 111 days
improvement of duration of treatment response over monotherapy (SCC-15 tumours [1]; xenogeneic model, Compound 1 with irradiation, either 5 Gy or 10 Gy): at least 4.6 ×
Median Survival (MC38 tumours; 0 Gy + IT 7.5 μg Compound 1): 13 days
Median Survival (MC38 tumours; [3]): 31 days
Median Survival (MC38 tumours; [4]): 47 days
cure rate (MC38 tumours; syngeneic model, 7.5 μg IT Compound 1 alone): 70%
survival at experiment end (MC38 tumours; [5]): 20%
tumours that remained cured at 200 days following treatment (MC38 tumours; [5]): two
survival at experiment end (MC38 tumours; [6]): 20%
tumours that remained cured at 200 days following treatment (MC38 tumours; [6]): two
cure rate (proportion of tumours responding completely) (MC38 tumours; syngeneic model, Compound 1 and 5 Gy irradiation): 100%
cure rate (proportion of tumours responding completely) (MC38 tumours; syngeneic model, Compound 1 and 10 Gy irradiation): 100%
duration of treatment response (MC38 tumours; syngeneic model, Compound 1 monotherapy): 6.2 days
duration of treatment response (MC38 tumours; syngeneic model, Compound 1 with 5 Gy irradiation): 64.6 days
duration of treatment response (MC38 tumours; syngeneic model, Compound 1 with 10 Gy irradiation): 65.9 days
improvement of duration of treatment response over monotherapy (MC38 tumours; syngeneic model, Compound 1 with irradiation, either 5 Gy or 10 Gy): ≥ 8.7 ×
tumour response (individual and average tumour volumes) (MC38 tumours; syngeneic model, combinations of Compound 1 and irradiation): considerably improved tumour response
tumour growth and overall survival compared to vehicle alone (LLC tumours; [7]): slowed tumour growth and prolonged overall survival
Median Survival (SCC-15 tumours [2]; [8]): 11 days
Median Survival (SCC-15 tumours [2]; [9]): 13 days
Combination Index at IC50, Irradiation (A431 cells; Compound 1 concentration 10 μM): 0.33
Combination Index at IC50, Irradiation (A431 cells; Compound 1 concentration 50 μM): 0.41
Combination Index at IC50, Irradiation (A431 cells; Compound 1 concentration 100 μM): 0.12
Combination Index at IC50, Irradiation (A431 cells; Compound 1 concentration 200 μM): 0.08
cell death compared to Compound 1 alone (A431 cells; Compound 1 with any concentration of irradiation): significant increase in cell death
relationship by Chou-Talalay combination index method (A431 cells; Compound 1 with irradiation): synergistic
Combination Index at IC50, Irradiation (SCC-15 cells; Compound 1 concentration 2 μM): 0.15
Combination Index at IC50, Irradiation (SCC-15 cells; Compound 1 concentration 20 μM): 2.1
Combination Index at IC50, Irradiation (SCC-15 cells; Compound 1 concentration 40 μM): 1.75
Combination Index at IC50, Irradiation (SCC-15 cells; Compound 1 concentration 60 μM): 1.34
relationship by Chou-Talalay combination index method (SCC-15 cells; at low concentrations): synergistic
relationship by Chou-Talalay combination index method (SCC-15 cells; some combination indices (CI >1)): consistent with antagonism
cell survival (SCC-15 cells; exposure to Compound 1 and irradiation): pronounced fall in cell survival
Median Survival (UV-13-1 tumours; [8]): 16.5 days
Median Survival (UV-13-1 tumours; [9]): 23.5 days
efficacy versus IP cisplatin alone (UV-13-1 tumours; syngeneic model, 5 μg and 10 μg Compound 1 IT with saline): more efficacious than IP cisplatin alone
tumour growth and overall survival compared to vehicle alone (B16-F10-OVA tumours; [7]): slowed tumour growth and prolonged overall survival
tumours completely ablated (B16-F10-OVA tumours; saline/10 μg Compound 1 group): 4/20

N.N.[Cl][Pt][Cl] [cisplatin, reference compound]
Median Survival (SCC-15 tumours [2]; [10]): 11 days
Median Survival (UV-13-1 tumours; [10]): 12 days

COc1cccc2c1C(=O)c1c(O)c3c(c(O)c1C2=O)C[C@@](O)(C(=O)CO)C[C@@H]3O[C@H]1C[C@H](N)[C@H](O)[C@H](C)O1 [doxorubicin, reference compound]
effect on tumour growth and survival (LLC tumours; [11]): minor effect on slowing tumour growth and prolonging survival
effect on tumour growth (B16-F10-OVA tumours; [11]): no effect on tumour growth
